Measured values published in the supplement of paper PMC10307832.

Experiments:
Assay in all cases: relative viability (nuclei count vs DMSO), 5 days (fraction); higher = more cells survive
Dinaciclib = compound: CCc1cnn2c(NCc3ccc[n+]([O-])c3)cc(N3CCCC[C@H]3CCO)nc12 [Dinaciclib]
Procedure, shortened: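 After an overnight hold at 37 °C, lung cancer cell lines in 1536-well plates were pinned with five library-drug doses (not always all listed), each √10 from the next, on vehicle-anchored plates. The cells stayed 5 days without fresh medium, then a one-step fix, permeabilisation and Hoechst stain preceded 4× imaging and MetaXpress nuclear counts. A plate passed only with control CV under 25% and at least one doubling. Viability is the median, over plates, of treated-well nuclei relative to vehicle-well nuclei.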

Dinaciclib + Bortezomib = compound: CCc1cnn2c(NCc3ccc[n+]([O-])c3)cc(N3CCCC[C@H]3CCO)nc12 [Dinaciclib] + CC(C)C[C@H](NC(=O)[C@H](Cc1ccccc1)NC(=O)c1cnccn1)B(O)O [Bortezomib] (partner 0.002 µM)
Procedure, shortened: (§1)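 Five library-drug doses in √10 steps were combined with a fixed anchor-drug dose, or a single drug was given alone, by pin tool to lung cancer cell lines in 1536-well plates the day after seeding. Nuclei were stained and counted after 5 days. Relative viability is the nuclei count in treated wells over that in vehicle wells, taken as the median of duplicate plates.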

Dinaciclib + Pictilisib = compound: CCc1cnn2c(NCc3ccc[n+]([O-])c3)cc(N3CCCC[C@H]3CCO)nc12 [Dinaciclib] + CS(=O)(=O)N1CCN(Cc2cc3nc(-c4cccc5[nH]ncc45)nc(N4CCOCC4)c3s2)CC1 [Pictilisib] (partner 1 µM)
Procedure, shortened: as §1

Dinaciclib + Navitoclax = compound: CCc1cnn2c(NCc3ccc[n+]([O-])c3)cc(N3CCCC[C@H]3CCO)nc12 [Dinaciclib] + CC1(C)CCC(c2ccc(Cl)cc2)=C(CN2CCN(c3ccc(C(=O)NS(=O)(=O)c4ccc(N[C@H](CCN5CCOCC5)CSc5ccccc5)c(S(=O)(=O)C(F)(F)F)c4)cc3)CC2)C1 [Navitoclax] (partner 0.5 µM)
Procedure, shortened: as §1

Dinaciclib + Foretinib = compound: CCc1cnn2c(NCc3ccc[n+]([O-])c3)cc(N3CCCC[C@H]3CCO)nc12 [Dinaciclib] + COc1cc2c(Oc3ccc(NC(=O)C4(C(=O)Nc5ccc(F)cc5)CC4)cc3F)ccnc2cc1OCCCN1CCOCC1 [Foretinib] (partner 0.25 µM)
Procedure, shortened: as §1

Dinaciclib + Olaparib = compound: CCc1cnn2c(NCc3ccc[n+]([O-])c3)cc(N3CCCC[C@H]3CCO)nc12 [Dinaciclib] + O=C(c1cc(Cc2n[nH]c(=O)c3ccccc23)ccc1F)N1CCN(C(=O)C2CC2)CC1 [Olaparib] (partner 8 µM)
Procedure, shortened: as §1

Dinaciclib + Lapatinib = compound: CCc1cnn2c(NCc3ccc[n+]([O-])c3)cc(N3CCCC[C@H]3CCO)nc12 [Dinaciclib] + CS(=O)(=O)CCNCc1ccc(-c2ccc3ncnc(Nc4ccc(OCc5cccc(F)c5)c(Cl)c4)c3c2)o1 [Lapatinib] (partner 2 µM)
Procedure, shortened: as §1

Dinaciclib + Crizotinib = compound: CCc1cnn2c(NCc3ccc[n+]([O-])c3)cc(N3CCCC[C@H]3CCO)nc12 [Dinaciclib] + C[C@@H](Oc1cc(-c2cnn(C3CCNCC3)c2)cnc1N)c1c(Cl)ccc(F)c1Cl [Crizotinib] (partner 1 µM)
Procedure, shortened: as §1

Dinaciclib + Linsitinib = compound: CCc1cnn2c(NCc3ccc[n+]([O-])c3)cc(N3CCCC[C@H]3CCO)nc12 [Dinaciclib] + C[C@]1(O)C[C@@H](c2nc(-c3ccc4ccc(-c5ccccc5)nc4c3)c3c(N)nccn32)C1 [Linsitinib] (partner 1 µM)
Procedure, shortened: as §1

Dinaciclib + Alpelisib = compound: CCc1cnn2c(NCc3ccc[n+]([O-])c3)cc(N3CCCC[C@H]3CCO)nc12 [Dinaciclib] + Cc1nc(NC(=O)N2CCC[C@H]2C(N)=O)sc1-c1ccnc(C(C)(C)C(F)(F)F)c1 [Alpelisib] (partner 2 µM)
Procedure, shortened: as §1

Dinaciclib + Vorinostat = compound: CCc1cnn2c(NCc3ccc[n+]([O-])c3)cc(N3CCCC[C@H]3CCO)nc12 [Dinaciclib] + O=C(CCCCCCC(=O)Nc1ccccc1)NO [Vorinostat] (partner 1 µM)
Procedure, shortened: as §1

Dinaciclib + Pemetrexed = compound: CCc1cnn2c(NCc3ccc[n+]([O-])c3)cc(N3CCCC[C@H]3CCO)nc12 [Dinaciclib] + Nc1nc2[nH]cc(CCc3ccc(C(=O)N[C@@H](CCC(=O)O)C(=O)O)cc3)c2c(=O)[nH]1 [Pemetrexed] (partner 0.2 µM)
Procedure, shortened: as §1

Dinaciclib + Tozasertib = compound: CCc1cnn2c(NCc3ccc[n+]([O-])c3)cc(N3CCCC[C@H]3CCO)nc12 [Dinaciclib] + Cc1cc(Nc2cc(N3CCN(C)CC3)nc(Sc3ccc(NC(=O)C4CC4)cc3)n2)n[nH]1 [Tozasertib] (partner 0.1 µM)
Procedure, shortened: as §1

Dinaciclib + Decitabine = compound: CCc1cnn2c(NCc3ccc[n+]([O-])c3)cc(N3CCCC[C@H]3CCO)nc12 [Dinaciclib] + Nc1ncn([C@H]2C[C@H](O)[C@@H](CO)O2)c(=O)n1 [Decitabine] (partner 2 µM)
Procedure, shortened: as §1

Dinaciclib + Trametinib = compound: CCc1cnn2c(NCc3ccc[n+]([O-])c3)cc(N3CCCC[C@H]3CCO)nc12 [Dinaciclib] + CC(=O)Nc1cccc(-n2c(=O)n(C3CC3)c(=O)c3c(Nc4ccc(I)cc4F)n(C)c(=O)c(C)c32)c1 [Trametinib] (partner 0.02 µM)
Procedure, shortened: as §1

Dinaciclib + Palbociclib = compound: CCc1cnn2c(NCc3ccc[n+]([O-])c3)cc(N3CCCC[C@H]3CCO)nc12 [Dinaciclib] + CC(=O)c1c(C)c2cnc(Nc3ccc(N4CCNCC4)cn3)nc2n(C2CCCC2)c1=O [Palbociclib] (partner 0.5 µM)
Procedure, shortened: as §1

Dinaciclib + AZD7762 = compound: CCc1cnn2c(NCc3ccc[n+]([O-])c3)cc(N3CCCC[C@H]3CCO)nc12 [Dinaciclib] + NC(=O)Nc1cc(-c2cccc(F)c2)sc1C(=O)N[C@H]1CCCNC1 [AZD7762] (partner 0.2 µM)
Procedure, shortened: as §1

Dinaciclib + OSI-027 = compound: CCc1cnn2c(NCc3ccc[n+]([O-])c3)cc(N3CCCC[C@H]3CCO)nc12 [Dinaciclib] + COc1cccc2cc(-c3nc([C@H]4CC[C@H](C(=O)O)CC4)n4ncnc(N)c34)[nH]c12 [OSI-027] (partner 0.5 µM)
Procedure, shortened: as §1

In the case of Calu-6, the relative viability (Dinaciclib; 0.009487 µM) is reported as 0.969, the relative viability (Dinaciclib; 0.03 µM) is reported as 0.145 and the relative viability (Dinaciclib; 0.09487 µM) is reported as 0.117. The relative viability (Dinaciclib; 0.3 µM) was 0.131, the relative viability (Dinaciclib + Bortezomib; first compound 0.009487 µM) was 0.54 and the relative viability (Dinaciclib + Bortezomib; first compound 0.03 µM) was 0.128. For the same cell line, the relative viability (Dinaciclib + Bortezomib; first compound 0.09487 µM) was 0.133, the relative viability (Dinaciclib + Bortezomib; first compound 0.3 µM) was 0.123 and the relative viability (Dinaciclib + Pictilisib; first compound 0.009487 µM) was 0.523. For the same cell line, the relative viability (Dinaciclib + Pictilisib; first compound 0.03 µM) was 0.113, the relative viability (Dinaciclib + Pictilisib; first compound 0.09487 µM) was 0.116 and the relative viability (Dinaciclib + Pictilisib; first compound 0.3 µM) was 0.114. The relative viability (Dinaciclib + Navitoclax; first compound 0.009487 µM) was 0.524, the relative viability (Dinaciclib + Navitoclax; first compound 0.03 µM) was 0.0805 and the relative viability (Dinaciclib + Navitoclax; first compound 0.09487 µM) was 0.0782. For the same cell line, the relative viability (Dinaciclib + Navitoclax; first compound 0.3 µM) was 0.0765, the relative viability (Dinaciclib + Foretinib; first compound 0.009487 µM) was 0.757 and the relative viability (Dinaciclib + Foretinib; first compound 0.03 µM) was 0.0769. For the same cell line, the relative viability (Dinaciclib + Foretinib; first compound 0.09487 µM) was 0.0773, the relative viability (Dinaciclib + Foretinib; first compound 0.3 µM) was 0.0929 and the relative viability (Dinaciclib + Olaparib; first compound 0.009487 µM) was 0.527. For the same cell line, the relative viability (Dinaciclib + Olaparib; first compound 0.03 µM) was 0.111, the relative viability (Dinaciclib + Olaparib; first compound 0.09487 µM) was 0.1 and the relative viability (Dinaciclib + Olaparib; first compound 0.3 µM) was 0.109. The relative viability (Dinaciclib + Lapatinib; first compound 0.009487 µM) was 0.914, the relative viability (Dinaciclib + Lapatinib; first compound 0.03 µM) was 0.112 and the relative viability (Dinaciclib + Lapatinib; first compound 0.09487 µM) was 0.13. For the same cell line, the relative viability (Dinaciclib + Lapatinib; first compound 0.3 µM) was 0.134, the relative viability (Dinaciclib + Crizotinib; first compound 0.009487 µM) was 0.619 and the relative viability (Dinaciclib + Crizotinib; first compound 0.03 µM) was 0.208. It also gave a relative viability (Dinaciclib + Crizotinib; first compound 0.09487 µM) of 0.0928, a relative viability (Dinaciclib + Crizotinib; first compound 0.3 µM) of 0.126 and a relative viability (Dinaciclib + Linsitinib; first compound 0.009487 µM) of 1.02. It also gave a relative viability (Dinaciclib + Linsitinib; first compound 0.03 µM) of 0.0954, a relative viability (Dinaciclib + Linsitinib; first compound 0.09487 µM) of 0.0924 and a relative viability (Dinaciclib + Linsitinib; first compound 0.3 µM) of 0.103. It also gave a relative viability (Dinaciclib + Alpelisib; first compound 0.009487 µM) of 0.498, a relative viability (Dinaciclib + Alpelisib; first compound 0.03 µM) of 0.133 and a relative viability (Dinaciclib + Alpelisib; first compound 0.09487 µM) of 0.118. For the same cell line, the relative viability (Dinaciclib + Alpelisib; first compound 0.3 µM) was 0.128.

Cell Line NCI-H1648 has a relative viability (Dinaciclib; 0.009487 µM) of 0.788, a relative viability (Dinaciclib; 0.03 µM) of 0.301 and a relative viability (Dinaciclib; 0.09487 µM) of 0.247. It also gave a relative viability (Dinaciclib; 0.3 µM) of 0.29, a relative viability (Dinaciclib + Vorinostat; first compound 0.009487 µM) of 0.275 and a relative viability (Dinaciclib + Vorinostat; first compound 0.03 µM) of 0.434. For the same cell line, the relative viability (Dinaciclib + Vorinostat; first compound 0.09487 µM) was 0.294, the relative viability (Dinaciclib + Vorinostat; first compound 0.3 µM) was 0.262 and the relative viability (Dinaciclib + Pemetrexed; first compound 0.009487 µM) was 0.644. It also gave a relative viability (Dinaciclib + Pemetrexed; first compound 0.03 µM) of 0.677, a relative viability (Dinaciclib + Pemetrexed; first compound 0.09487 µM) of 0.25 and a relative viability (Dinaciclib + Pemetrexed; first compound 0.3 µM) of 0.199. The relative viability (Dinaciclib + Olaparib; first compound 0.009487 µM) was 0.521, the relative viability (Dinaciclib + Olaparib; first compound 0.03 µM) was 0.387 and the relative viability (Dinaciclib + Olaparib; first compound 0.09487 µM) was 0.234. The relative viability (Dinaciclib + Olaparib; first compound 0.3 µM) was 0.219, the relative viability (Dinaciclib + Tozasertib; first compound 0.009487 µM) was 0.503 and the relative viability (Dinaciclib + Tozasertib; first compound 0.03 µM) was 0.274. It also gave a relative viability (Dinaciclib + Tozasertib; first compound 0.09487 µM) of 0.166, a relative viability (Dinaciclib + Tozasertib; first compound 0.3 µM) of 0.207 and a relative viability (Dinaciclib + Decitabine; first compound 0.009487 µM) of 0.468. The relative viability (Dinaciclib + Decitabine; first compound 0.03 µM) was 0.218, the relative viability (Dinaciclib + Decitabine; first compound 0.09487 µM) was 0.231 and the relative viability (Dinaciclib + Decitabine; first compound 0.3 µM) was 0.217. It also gave a relative viability (Dinaciclib + Trametinib; first compound 0.009487 µM) of 0.49, a relative viability (Dinaciclib + Trametinib; first compound 0.03 µM) of 0.346 and a relative viability (Dinaciclib + Trametinib; first compound 0.09487 µM) of 0.241. It also gave a relative viability (Dinaciclib + Trametinib; first compound 0.3 µM) of 0.264, a relative viability (Dinaciclib + Palbociclib; first compound 0.009487 µM) of 0.227 and a relative viability (Dinaciclib + Palbociclib; first compound 0.03 µM) of 0.223. It also gave a relative viability (Dinaciclib + Palbociclib; first compound 0.09487 µM) of 0.265, a relative viability (Dinaciclib + Palbociclib; first compound 0.3 µM) of 0.224 and a relative viability (Dinaciclib + AZD7762; first compound 0.009487 µM) of 0.85. It also gave a relative viability (Dinaciclib + AZD7762; first compound 0.03 µM) of 0.577, a relative viability (Dinaciclib + AZD7762; first compound 0.09487 µM) of 0.266 and a relative viability (Dinaciclib + AZD7762; first compound 0.3 µM) of 0.24. The relative viability (Dinaciclib + OSI-027; first compound 0.009487 µM) was 0.263, the relative viability (Dinaciclib + OSI-027; first compound 0.03 µM) was 0.259 and the relative viability (Dinaciclib + OSI-027; first compound 0.09487 µM) was 0.265. For the same cell line, the relative viability (Dinaciclib + OSI-027; first compound 0.3 µM) was 0.212.
